Results as given in publication PMC8956739, “A synthetic lipopeptide targeting top-priority multidrug-resistant Gram-negative pathogens” (Nature Communications, 2022).
Residues, ends and D or L forms follow the SMILES beside them.

Tested on: A. baumannii AB5075
Assay: Transcriptomic analysis (RNA-Seq) of bacteria
Type: cell-based, Acinetobacter baumannii
Settings: for log2FC, gene ABUW_RS01945 (acyl-CoA thioesterase II) / log2FC, gene ABUW_RS02545 (acyl-CoA thioesterase) / log2FC, gene ABUW_RS05045 (acyl-CoA thioesterase) / log2FC, gene ABUW_RS17575 (acyl-CoA thioesterase): pathway Fatty Acid and Lipid Degradation; for logFC (Differential gene expression for all genes), Geneid ABUW_RS00005 / logFC (Differential gene expression for all genes), Geneid ABUW_RS00020 / logFC (Fold change), gene ABUW_RS00010 / logFC (Fold change), gene ABUW_RS00030 / logFC (Fold change), gene ABUW_RS00035 / logFC (Fold change), gene recF (ABUW_RS00015) / 4h_1h logFC (Differential gene expression for all genes), Geneid ABUW_RS00005 / 4h_1h logFC (Differential gene expression for all genes), Geneid ABUW_RS00010 / 4h_1h logFC (Differential gene expression for all genes), Geneid ABUW_RS00015 / 4h_1h logFC (Differential gene expression for all genes), Geneid ABUW_RS00020: RNA-Seq A. baumannii AB5075; for 4h_1h logFC (Differential gene expression for all genes), Geneid ABUW_RS00005 / 4h_1h logFC (Differential gene expression for all genes), Geneid ABUW_RS00010 / 4h_1h logFC (Differential gene expression for all genes), Geneid ABUW_RS00015 / 4h_1h logFC (Differential gene expression for all genes), Geneid ABUW_RS00020: 4h vs 1h
Experimental: Mid-log phase A. baumannii AB5075 (~10^8 CFU/mL) in CaMHB was treated with colistin (2 and 8 μg/mL), F287, F319 or F365 (equimolar concentration to colistin) for 1 and 4 h. Total RNA was extracted using TRIzol Reagent (Invitrogen, USA) and RNeasy Mini Kit (Qiagen, Germany). Quality check of RNA samples was conducted with NanoDrop (Thermo Fisher Scientific, USA) and Agilent 2100 Bioanalyzer (Agilent Technologies, USA) for sequencing (150 bp paired-end) at Genewiz (Shanghai, China). Raw reads were aligned to A. baumannii AB5075 genome (GCF_000963815, https://www.ncbi.nlm.nih.gov/assembly/GCF_000963815.1/) using subread-aligner (subread 2.0.1) and summarized by featureCounts (subread 2.0.1). Principal component analysis (PCA) was conducted with mixOmics 6.14.1 in R. Differentially expressed genes were determined using limma 3.46.0 with a combination of fold change ≥ 2 and false discovery rate (FDR, by Benjamini–Hochberg algorithm) adjusted P-value ≤ 0.05 (n = 3). Enrichment analysis of gene differential expression in AB5075 was conducted using BioCyc (A. baumannii AB5075, version 25.5). UpSetR 1.4.0, ComplexHeatmap 2.6.2 and circlize 0.4.13 were used for data visualization. Raw data were deposited in Short Reads Archive (SRA) database under accession numbers SRR15235669-SRR15235725.

How did the “log2FC, gene ABUW_RS01945 (acyl-CoA thioesterase II)” value (shortened to “log2FC, gene ABUW_RS01945”) (H vs Cont, 1h) turn out when `CCCCCCCC(=O)N[C@@H](CCN)C(=O)N[C@H](C(=O)N[C@@H](CN)C(=O)N[C@H]1CCNC(=O)[C@H]([C@@H](C)O)NC(=O)[C@H](CCN)NC(=O)[C@H](CCN)NC(=O)[C@H](CC)NC(=O)[C@@H](CC(C)C)NC(=O)[C@H](CCN)NC1=O)[C@@H](C)O` [Lipopeptide F287] (HELM PEPTIDE1{[CCCCCCCC(=O)[*:2]].[Dab].T.[NC[C@H](N[*:1])C(=O)[*:2]].[Dab].[Dab].[dL].[Abu].[Dab].[Dab].T}$PEPTIDE1,PEPTIDE1,5:R3-11:R2$$$V2.0) was run?
The value was 0.3471.

What about the “log2FC, gene ABUW_RS02545 (acyl-CoA thioesterase)” value (“log2FC, gene ABUW_RS02545” for short) (H vs Cont, 1h) of the same compound?
Its value is 1.413.

And the “log2FC, gene ABUW_RS05045 (acyl-CoA thioesterase)” value (“log2FC, gene ABUW_RS05045” for short) (H vs Cont, 1h)?
Its value is 0.6077.

What about the “log2FC, gene ABUW_RS17575 (acyl-CoA thioesterase)” value (“log2FC, gene ABUW_RS17575” for short) (H vs Cont, 1h) of the same compound?
The value was -1.9504.

What about the “logFC (Differential gene expression for all genes), Geneid ABUW_RS00005” value (H vs Cont, 4h) of the same compound?
Its value is -0.2595.

What about the “logFC (Differential gene expression for all genes), Geneid ABUW_RS00020” value (H vs Cont, 4h) of the same compound?
The value was 0.07692.

What about the “logFC (Fold change), gene ABUW_RS00010” value (H vs Cont, 4h) of the same compound?
Its value is 1.124.

What about the “logFC (Fold change), gene ABUW_RS00030” value (H vs Cont, 4h) of the same compound?
The value was -1.151.

And the “logFC (Fold change), gene ABUW_RS00035” value (H vs Cont, 4h)?
The value was 1.24.

And the “logFC (Fold change), gene recF (ABUW_RS00015)” value (“logFC (Fold change), gene recF” for short) (H vs Cont, 4h)?
Its value is -1.077.

What about the “log2FC, gene ABUW_RS01945” value (H vs Cont, 4h) of the same compound?
Its value is -0.6425.

And the “log2FC, gene ABUW_RS02545” value (H vs Cont, 4h)?
The value was 1.263.

And the “log2FC, gene ABUW_RS05045” value (H vs Cont, 4h)?
The value was 0.8039.

And the “log2FC, gene ABUW_RS17575” value (H vs Cont, 4h)?
Its value is -1.276.

And the “4h_1h logFC (Differential gene expression for all genes), Geneid ABUW_RS00005” value (H)?
Its value is -0.6471.

What about the “4h_1h logFC (Differential gene expression for all genes), Geneid ABUW_RS00010” value (H) of the same compound?
The value was 0.4305.

And the “4h_1h logFC (Differential gene expression for all genes), Geneid ABUW_RS00015” value (H)?
Its value is -1.349.

What about the “4h_1h logFC (Differential gene expression for all genes), Geneid ABUW_RS00020” value (H) of the same compound?
Its value is 0.3991.

What about the “logFC (Differential gene expression for all genes), Geneid ABUW_RS00005” value (L vs Cont, 1h) of the same compound?
The value was 0.09601.

And the “logFC (Differential gene expression for all genes), Geneid ABUW_RS00020” value (L vs Cont, 1h)?
Its value is 0.1731.

What about the “logFC (Fold change), gene ABUW_RS00010” value (L vs Cont, 1h) of the same compound?
Its value is 0.3235.

And the “logFC (Fold change), gene ABUW_RS00030” value (L vs Cont, 1h)?
Its value is -0.01757.

And the “logFC (Fold change), gene ABUW_RS00035” value (L vs Cont, 1h)?
Its value is 0.2853.

And the “logFC (Fold change), gene recF” value (L vs Cont, 1h)?
The value was 0.06622.

And the “log2FC, gene ABUW_RS01945” value (L vs Cont, 1h)?
The value was 0.394.

And the “log2FC, gene ABUW_RS02545” value (L vs Cont, 1h)?
Its value is 0.4759.

What about the “log2FC, gene ABUW_RS05045” value (L vs Cont, 1h) of the same compound?
The value was -0.04078.

What about the “log2FC, gene ABUW_RS17575” value (L vs Cont, 1h) of the same compound?
The value was 0.9551.

And the “logFC (Differential gene expression for all genes), Geneid ABUW_RS00005” value (L vs Cont, 4h)?
Its value is 0.1326.

What about the “logFC (Differential gene expression for all genes), Geneid ABUW_RS00020” value (L vs Cont, 4h) of the same compound?
The value was -0.2281.

What about the “logFC (Fold change), gene ABUW_RS00010” value (L vs Cont, 4h) of the same compound?
Its value is 0.09364.

And the “logFC (Fold change), gene ABUW_RS00030” value (L vs Cont, 4h)?
The value was 0.3636.

And the “logFC (Fold change), gene ABUW_RS00035” value (L vs Cont, 4h)?
Its value is 0.2169.

What about the “logFC (Fold change), gene recF” value (L vs Cont, 4h) of the same compound?
The value was 0.1608.

And the “log2FC, gene ABUW_RS01945” value (L vs Cont, 4h)?
The value was -0.1224.

And the “log2FC, gene ABUW_RS02545” value (L vs Cont, 4h)?
The value was -0.4528.

And the “log2FC, gene ABUW_RS05045” value (L vs Cont, 4h)?
Its value is 0.3557.

And the “log2FC, gene ABUW_RS17575” value (L vs Cont, 4h)?
Its value is -0.4747.

And the “4h_1h logFC (Differential gene expression for all genes), Geneid ABUW_RS00005” value (L)?
The value was -0.01752.

And the “4h_1h logFC (Differential gene expression for all genes), Geneid ABUW_RS00010” value (L)?
The value was -0.721.

What about the “4h_1h logFC (Differential gene expression for all genes), Geneid ABUW_RS00015” value (L) of the same compound?
The value was 0.1845.

And the “4h_1h logFC (Differential gene expression for all genes), Geneid ABUW_RS00020” value (L)?
Its value is -0.0476.
